What was measured:
[1] = test system: advanced pancreatic cancer; experiment: Randomised, open-label, phase II study of gemcitabine with and without IMM-101 (IMAGE 1); format: in vivo, human
Source text: This study is described in U.S. Pat. No. 8,617,520 assigned to the applicant, and the results were published by Dalgeish et al, in the paper entitled “Randomised, open-label, phase II study of gemcitabine with and without IMM-101 for advanced pancreatic cancer”. [Br. J. Cancer. 2016 Sep. 27; 115(7): 789-796] and also as “Long term survival in IMAGE 1 (Immune Modulation And Gemcitabine Evaluation 1), a randomized, open-label phase II trial comparing gemcitabine with and without IMM-101 in advanced pancreatic cancer”; Angus George Dalgleish and The IMAGE 1 Trial Investigators; Journal of Clinical Oncology 2015 33:15_suppl, 3051-3051.
In summary, this study compared, in patients with advanced pancreatic cancer, the effects of gemcitabine (GEM) in combination with IMM-101 (a suspension of heat-killed whole cell M. obuense in borate-buffered saline) to gemcitabine alone on: Safety and tolerability, including QoL; clinical signs and symptoms of disease; Overall survival (OS), progression-free survival (PFS), and overall response rate (ORR; Selected markers of tumour burden and immunological status
Disease outcome—patients, who provided informed consent, participated in a screening period of up to 28 days to establish eligibility. […]

[2] = test system: advanced pancreatic cancer; conditions: phase II trial, metastatic pancreatic cancer patients; gemcitabine therapy with or without addition of IMM-101 (background); cited from earlier work

For `Nc1ccn([C@@H]2O[C@H](CO)[C@@H](O)C2(F)F)c(=O)n1` [GEM, gemcitabine], the “patients with BOR of PD” value ([1]; PS2 patients) is listed as 2 patients, the OS ([1]; pre-defined metastatic subgroup (84%)) is listed as 4.4 months and the overall survival [2] is listed as 4.4 months.

Source: patent US12673074B2, “Mycobacterium for use in cancer therapy” (TONRON INTERNATIONAL LIMITED, priority 2020, dated 2026)
